Experimental data: publication PMC4503439, “Dose-Independent ADME Properties and Tentative Identification of Metabolites of α-Mangostin from Garcinia mangostana in Mice by Automated Microsampling and UPLC-MS/MS Methods” (PLoS ONE, 2015)
“Also recorded” adds a separate entry of the source.

How the values were obtained:
Caco2 cell line = test system: Caco2 cell line; parameters: method as in PMID 19415666; details: cited from earlier work
[1] = Metabolism of α-MG in in vitro S9 fractions of other tissues; type: in vitro ADME, mice; details: other tissues studied, spiked 1 and 20 μg/mL
Source text: The procedures for using S9 fractions from various tissues were similar those already reported. Each liver, stomach, small intestine, large intestine, lung, heart, kidney, fat, mesentery, muscle, and brain was excised after cervical dislocation (n = 6). Each tissue sample was rinsed with cold 0.9% NaCl-injectable solution, blotted dry with tissue paper and weighed. Then each tissue was homogenized with a volume of 0.25 M sucrose at 4 times of each tissue. Metabolic activity was initiated by adding a 100 μL aliquot of the 9000 × g supernatant fraction (S9) of each tissue to a 135 μL of Tris-buffer (pH 7.4), 5 μL of 0.9% NaCl-injectable solution with 1 or 20 μg/mL α-MG as a final concentration, 5 μL (1 mM) of NADPH and 5 μL (3.3 mM) of UDPGA. A 250 μL aliquot of acetonitrile (containing 1 μg/mL of the IS) was added after a 30 min incubation in a thermomixer (37°C and 500 opm) to terminate the enzyme activity. The amount of remaining α-MG in the S9 fraction of each tissue was determined using the HPLC-MS/MS analytical method.

[2] = Tentative identification of metabolites from α-MG by UPLC-MS/MS; type: in vivo; details: mice after intravenous and oral α-MG; S9 fractions after 30-min incubation
Source text: Probable metabolites of α-MG were identified using the simultaneous full scan MS, MRM and MS/MS modes in a Waters UPLC-XEVO TQ system (Waters Corporation, Milford, USA) to confirm the structures of any metabolites. […] Structural elucidation of the metabolites was based on the fragmentation patterns of parent ion from the MS/MS mode at a collision energy of 10 to 20 eV generating daughter ions. The mass transitions for α-MG was m/z 411.21 → 354.85 (collision energy of 20 eV and collision cell exit potential of 25 eV, respectively). The unknown masses were further analyzed in MS/MS (daughter scan) mode with the electrospray ionization interface used to generate positive and negative ions at a capillary voltage of 3.0 kV, source temperature of 350°C and desolvation gas temperature of 650°C. The MRM methods for identification of possible metabolites generated by phase I and/or II reactions were included.
These compounds were separated on a reversed-phase C18 column (XSELECT CSH, 2.1 mm × 100 mm i.d., 1.7-μm particle size; Waters, Ireland) with a flow rate of 0.35 mL/min. The mobile phase composition was started at 95: 5 (v/v) of distilled water containing 0.1% formic acid (A) and acetonitrile (B) and gradually changed to 35: 65 (v/v) for 30 min, and then switched back to 95: 5 (v/v) for 40 min.

[3] = Tissue distribution of α-MG (tissue-to-plasma ratios) after intravenous and oral administration; type: in vivo, mice
Protocol: The surgical procedures and administration of α-MG were conducted according to a previously reported method, [12], [31]. At 30 and 180 min after intravenous and oral administration of α-MG at doses of 10 mg/kg, as much blood as possible was collected via the carotid artery and each mouse was then sacrificed by cervical dislocation. Each liver, spleen, stomach, small intestine, large intestine, mesentery, kidney, fat, muscle, heart, lung, and brain was excised, weighted and homogenized with a volume of distilled water at 4 times the each organ. After centrifugation for 10 min, the supernatant was collected and all samples stored at –80°C until required.

[4] = Mouse plasma protein binding using an equilibrium dialysis technique; type: in vitro ADME; details: pH 7.4, fresh mouse plasma
Protocol: A 250 μL of mouse plasma was dialyzed against 250 μL of isotonic Sørensen phosphate buffer with pH 7.4 containing 3% (w/v) dextran (‘the buffer’) in a dialysis cell using a Spectra/Por 4 membrane (molecular weight cutoff of 12000–14000; Spectrum Medical Industries). α-MG was spiked into the plasma compartment to produce an initial concentration of 1 or 20 μg/mL and all other procedures followed the reported method.

[5] = Stability of α-MG in various buffer solutions; type: physicochemical; details: pHs ranging from 2 to 13; unpublished data

Compound: COc1c(O)cc2oc3cc(O)c(CC=C(C)C)c(O)c3c(=O)c2c1CC=C(C)C [α-MG, α-Mangostin]
- absorption in the Caco2 cell line (Caco2 cell line): low absorption
- metabolic activity in S9 fractions [1]: almost negligible metabolic activities
- Source (samples in which detected) [2]: plasma, urine, feces, liver, small intestine, S9 fractions of liver and small intestine
- tissue-to-plasma (T/P) ratio ([3]; intravenous 10 mg/kg, kidney, at 30 min): greater than unity
- tissue-to-plasma (T/P) ratio ([3]; intravenous 10 mg/kg, large intestine and fat, at 180 min): greater than unity
- tissue-to-plasma (T/P) ratio ([3]; intravenous 10 mg/kg, liver, small intestine and lung, at 30 and 180 min): greater than unity
- tissue-to-plasma (T/P) ratio ([3]; oral 10 mg/kg, all tissues studied except the brain, at 30 and 180 min, 10 mg/kg): greater than unity; also recorded: above unity
- fraction unbound at 1 μg/mL ([4]; 1 μg/mL): 0.082
- fraction unbound at 20 μg/mL ([4]; 20 μg/mL): 0.107
- stability in various buffer solutions [5]: stable
